# Target: T1, Na^+ -dependent bile acid transport system (Oryctolagus cuniculus, UniProt Q28727)
# T1 construct: Brush border membrane vesicles from the intestinal cells of the small intestine were prepared by the so-called Mg^2+ precipitation method; from tissue; host or cells: terminal ileum (terminal 7/10 of small intestine) of male New Zealand rabbits, brush border membrane vesicles
# T1 sequence (Q28727 1-347): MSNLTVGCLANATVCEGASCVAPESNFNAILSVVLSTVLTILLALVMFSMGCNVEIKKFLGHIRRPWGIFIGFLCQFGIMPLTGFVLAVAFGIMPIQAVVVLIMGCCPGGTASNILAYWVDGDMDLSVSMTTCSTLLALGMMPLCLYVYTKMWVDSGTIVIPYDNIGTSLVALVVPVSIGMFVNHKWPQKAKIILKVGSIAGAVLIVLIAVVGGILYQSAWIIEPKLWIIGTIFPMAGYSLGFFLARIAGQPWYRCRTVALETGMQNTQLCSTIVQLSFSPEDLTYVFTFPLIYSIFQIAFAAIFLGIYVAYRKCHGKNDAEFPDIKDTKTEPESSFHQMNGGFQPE
# Assay: inhibition of Na+-dependent [3H]-taurocholate absorption in brush border membrane vesicles of rabbit ileum (membrane filtration technique)
# Assay type: biochemical
# Settings: 50 μM taurocholate, customarily 1 minute, pH 7.4; for IC50Na (TCDC) / IC50Na (Substance): quotient of IC50Na of the standard TCDC and of the substance, Na+-dependent transport (difference Na-T-B minus K-T-B); for IC50 (TCDC) / IC50 (Substance): quotient of IC50 of the standard taurochenodeoxycholate (TCDC) and of the substance
# Protocol: The biological testing of the compounds according to the invention was carried out by determining the inhibition of [^3 H]-taurocholate absorption in brush border membrane vesicles of the rabbit ileum. The inhibition test was carried out as follows:
# Brush border membrane vesicles from the intestinal cells of the small intestine were prepared by the so-called Mg^2+ precipitation method. Male New Zealand rabbits (2 to 2.5 kg body weight) were sacrificed by intravenous injection of 0.5 ml of an aqueous solution of 2.5 mg of tetracaine HCl, 100 T 61® and 25 mg of mebezonium iodide. The small intestine was removed and rinsed with ice-cold physiological saline solution. The terminal 7/10 of the small intestine (measured in the oral-rectal direction, i.e. the terminal ileum, which contains the active Na^+ -dependent bile acid transport system) were used for the preparation of the brush border membrane vesicles. The intestines were frozen under nitrogen at -80° C. in plastic bags. For the preparation of the membrane vesicles, the frozen intestines were thawed at 30° C. in a water bath. The mucosa was scraped off and suspended in 60 ml of ice-cold 12 mM tris/HCl buffer (pH 7.1)/300 mM mannitol, 5 mM EGTA/ 10 mg/l of phenylmethylsulfonyl fluoride/l mg/l of trypsin inhibitor from soybeans (32 U/mg)/0.5 mg/l of trypsin inhibitor from bovine lung (193 U/mg)/5 mg/l of bacitracin. After dilution to 300 ml with ice-cold distilled water, the suspension was homogenized using an Ultraturrax (18-rod, IKAWerk Staufen, FRG) for 3 minutes at 75% maximum power with ice-cooling. After addition of 3 ml of 1M MgCl2 solution (final concentration 10 mM), the homogenate was allowed to stand at 0° C. for exactly 1 minute. As a result of addition of Mg^2+, the cell membranes aggregate and precipitate with the exception of the brush border membranes. After centrifugation at 3000×g for 15 minutes (5000 rpm, SS-34 rotor), the precipitate is discarded and the supernatant which contains the brush border membranes is centrifuged at […] for 30 minutes (15,000 rpm, SS-34 rotor). The supernatant was discarded and the precipitate was rehomogenized in 60 ml of 12 mM tris/HCl buffer (pH 7.1)/60 mM mannitol/5 mM EGTA using a Potter Elvejhem homogenizer (Braun Melsungen, 900 rpm, 10 strokes). After addition of 0.1 ml of 1M MgCl2 solution and an incubation time of 15 minutes at 0° C., centrifugation was once more carried out at 3000×g for 15 minutes. The supernatant was then centrifuged again at 46,000×g (15,000 rpm, SS-34 rotor) for 30 minutes. The precipitate was taken up in 30 ml of 10 mM tris/hepes buffer (pH 7.4)/300 mM mannitol and homogeneously resuspended at 1000 rpm by 20 strokes in a Potter Elvejhem homogenizer. After centrifugation at 48,000×g (20,000 rpm, SS-34 rotor) for 30 minutes, the precipitate was taken up in 0.5 to 2 ml of tris/HEPES buffer (pH 7.4)/280mM mannitol (final concentration 20 mg/ml) and resuspended with the aid of a tuberculin syringe having a 27 gauge needle. The vesicles were either used immediately after preparation for transport investigations or stored in liquid nitrogen at -196° C. in 4 mg portions.
# The absorption of substrates in the brush border membrane vesicles described above was determined by means of the so-called membrane filtration technique. 10 μl of the vesicle suspension (100 μg of protein) were pipetted as drops onto the wall of a polystyrene incubation tube (11×70 mm) which contained the incubation medium with the appropriate ligands (90 μl). The incubation medium contained 0.75 μl=0.75 μCi of [^3 H(G)]-taurocholate (specific activity: 2.1 Ci/mMol)/0.5 μl of 10 mM taurocholate/8.75 μl of sodium transport buffer (10 mM tris/HEPES (pH 7.4)/100 mM mannitol/100 mM NaCl) (Na-T-B) or 8.75 μl of potassium transport buffer (10 mM tris/hepes (pH 7.4)/100 mM mannitol/100 mM KCl) (K-T-B) and 80 μl of the inhibitor solution concerned, depending on the experiment, dissolved in Na-T buffer or K-T buffer. […]
SMILES,IC50Na (TCDC) / IC50Na (Substance),IC50 (TCDC) / IC50 (Substance)
C[C@H](CCC(=O)O)[C@H]1CC[C@H]2[C@@H]3[C@H](O)C[C@@H]4C[C@H](CCNC(=O)c5cc(C(=O)NCC[C@@H]6CC[C@@]7(C)[C@@H](C6)C[C@@H](O)[C@@H]6[C@@H]7C[C@H](O)[C@]7(C)[C@@H]([C@H](C)CCC(=O)O)CC[C@@H]67)cc(C(=O)NCC[C@@H]6CC[C@@]7(C)[C@@H](C6)C[C@@H](O)[C@@H]6[C@@H]7C[C@H](O)[C@]7(C)[C@@H]([C@H](C)CCC(=O)O)CC[C@@H]67)c5)CC[C@]4(C)[C@H]3C[C@H](O)[C@]12C [Example 18],0.76,0.85
C[C@H](CCC(=O)O)[C@H]1CC[C@H]2[C@@H]3[C@H](O)C[C@@H]4C[C@@H](NC(=O)[C@]5(C)C[C@](C)(C(=O)N[C@H]6CC[C@@]7(C)[C@@H](C6)C[C@@H](O)[C@@H]6[C@@H]7C[C@H](O)[C@]7(C)[C@@H]([C@H](C)CCC(=O)O)CC[C@@H]67)C[C@](C)(C(=O)N[C@H]6CC[C@@]7(C)[C@@H](C6)C[C@@H](O)[C@@H]6[C@@H]7C[C@H](O)[C@]7(C)[C@@H]([C@H](C)CCC(=O)O)CC[C@@H]67)C5)CC[C@]4(C)[C@H]3C[C@H](O)[C@]12C [Example 33],1.04,0.77
CC(CCC(=O)O)C1CCC2C3C(O)CC4CC(OCCNC(=O)C5C(C(=O)NCCOC6CCC7(C)C(C6)CC(O)C6C7CC(O)C7(C)C(C(C)CCC(=O)O)CCC67)C(c6ccccc6)C5C(=O)NCCOC5CCC6(C)C(C5)CC(O)C5C6CC(O)C6(C)C(C(C)CCC(=O)O)CCC56)CCC4(C)C3CC(O)C12C (stereo not shown) [Example 45],0.23,0.32
C[C@H](CCC(=O)O)[C@H]1CC[C@H]2[C@@H]3[C@H](O)C[C@@H]4C[C@@H](OCCCCCCNC(=O)[C@]5(C)C[C@](C)(C(=O)NCCCCCCO[C@H]6CC[C@@]7(C)[C@@H](C6)C[C@@H](O)[C@@H]6[C@@H]7C[C@H](O)[C@]7(C)[C@@H]([C@H](C)CCC(=O)O)CC[C@@H]67)C[C@](C)(C(=O)NCCCCCCO[C@H]6CC[C@@]7(C)[C@@H](C6)C[C@@H](O)[C@@H]6[C@@H]7C[C@H](O)[C@]7(C)[C@@H]([C@H](C)CCC(=O)O)CC[C@@H]67)C5)CC[C@]4(C)[C@H]3C[C@H](O)[C@]12C [Example 16],0.31,0.37
C[C@H](CCC(=O)O)[C@H]1CC[C@H]2[C@@H]3[C@H](O)C[C@@H]4C[C@@H](NC(=O)CCOCCCOCC(C)(COCCCOCCC(=O)N[C@H]5CC[C@@]6(C)[C@@H](C5)C[C@@H](O)[C@@H]5[C@@H]6C[C@H](O)[C@]6(C)[C@@H]([C@H](C)CCC(=O)O)CC[C@@H]56)COCCCOCCC(=O)N[C@H]5CC[C@@]6(C)[C@@H](C5)C[C@@H](O)[C@@H]5[C@@H]6C[C@H](O)[C@]6(C)[C@@H]([C@H](C)CCC(=O)O)CC[C@@H]56)CC[C@]4(C)[C@H]3C[C@H](O)[C@]12C [Example 11],0.36,0.29
C[C@H](CCC(=O)O)[C@H]1CC[C@H]2[C@@H]3[C@H](O)C[C@@H]4C[C@@H](OCCCCCNC(=O)[C@]5(C)C[C@](C)(C(=O)NCCCCCO[C@H]6CC[C@@]7(C)[C@@H](C6)C[C@@H](O)[C@@H]6[C@@H]7C[C@H](O)[C@]7(C)[C@@H]([C@H](C)CCC(=O)O)CC[C@@H]67)C[C@](C)(C(=O)NCCCCCO[C@H]6CC[C@@]7(C)[C@@H](C6)C[C@@H](O)[C@@H]6[C@@H]7C[C@H](O)[C@]7(C)[C@@H]([C@H](C)CCC(=O)O)CC[C@@H]67)C5)CC[C@]4(C)[C@H]3C[C@H](O)[C@]12C [Example 31],0.93,1.26
C[C@H](CCC(=O)O)[C@H]1CC[C@H]2[C@@H]3[C@H](O)C[C@@H]4C[C@@H](OCCNC(=O)CCC(CCC(=O)NCCO[C@H]5CC[C@@]6(C)[C@@H](C5)C[C@@H](O)[C@@H]5[C@@H]6C[C@H](O)[C@]6(C)[C@@H]([C@H](C)CCC(=O)O)CC[C@@H]56)(CCC(=O)NCCO[C@H]5CC[C@@]6(C)[C@@H](C5)C[C@@H](O)[C@@H]5[C@@H]6C[C@H](O)[C@]6(C)[C@@H]([C@H](C)CCC(=O)O)CC[C@@H]56)[N+](=O)[O-])CC[C@]4(C)[C@H]3C[C@H](O)[C@]12C [Example 7],0.34,0.29
C[C@H](CCC(=O)O)[C@H]1CC[C@H]2[C@@H]3[C@H](O)C[C@@H]4C[C@@H](OCCCCCCNC(=O)c5cc(C(=O)NCCCCCCO[C@H]6CC[C@@]7(C)[C@@H](C6)C[C@@H](O)[C@@H]6[C@@H]7C[C@H](O)[C@]7(C)[C@@H]([C@H](C)CCC(=O)O)CC[C@@H]67)cc(C(=O)NCCCCCCO[C@H]6CC[C@@]7(C)[C@@H](C6)C[C@@H](O)[C@@H]6[C@@H]7C[C@H](O)[C@]7(C)[C@@H]([C@H](C)CCC(=O)O)CC[C@@H]67)c5)CC[C@]4(C)[C@H]3C[C@H](O)[C@]12C [Example 21],0.59,0.29
CC(CCC(=O)O)C1CCC2C3C(O)CC4CC(OCCNC(=O)C5C(C(=O)NCCOC6CCC7(C)C(C6)CC(O)C6C7CC(O)C7(C)C(C(C)CCC(=O)O)CCC67)C(C(=O)NCCOC6CCC7(C)C(C6)CC(O)C6C7CC(O)C7(C)C(C(C)CCC(=O)O)CCC67)C5C(=O)NCCOC5CCC6(C)C(C5)CC(O)C5C6CC(O)C6(C)C(C(C)CCC(=O)O)CCC56)CCC4(C)C3CC(O)C12C (stereo not shown) [Example 47],0.23,0.24
C[C@H](CCC(=O)O)[C@H]1CC[C@H]2[C@@H]3[C@H](O)C[C@@H]4C[C@@H](OCCNC(=O)CCOCC(C)(COCCC(=O)NCCO[C@H]5CC[C@@]6(C)[C@@H](C5)C[C@@H](O)[C@@H]5[C@@H]6C[C@H](O)[C@]6(C)[C@@H]([C@H](C)CCC(=O)O)CC[C@@H]56)COCCC(=O)NCCO[C@H]5CC[C@@]6(C)[C@@H](C5)C[C@@H](O)[C@@H]5[C@@H]6C[C@H](O)[C@]6(C)[C@@H]([C@H](C)CCC(=O)O)CC[C@@H]56)CC[C@]4(C)[C@H]3C[C@H](O)[C@]12C [Example 10],0.26,0.24
C[C@H](CCC(=O)O)[C@H]1CC[C@H]2[C@@H]3[C@H](O)C[C@@H]4C[C@@H](OCCCCCNC(=O)c5cc(C(=O)NCCCCCO[C@H]6CC[C@@]7(C)[C@@H](C6)C[C@@H](O)[C@@H]6[C@@H]7C[C@H](O)[C@]7(C)[C@@H]([C@H](C)CCC(=O)O)CC[C@@H]67)cc(C(=O)NCCCCCO[C@H]6CC[C@@]7(C)[C@@H](C6)C[C@@H](O)[C@@H]6[C@@H]7C[C@H](O)[C@]7(C)[C@@H]([C@H](C)CCC(=O)O)CC[C@@H]67)c5)CC[C@]4(C)[C@H]3C[C@H](O)[C@]12C [Example 20],0.86,0.43
